Settings: 101.33 kPa, Liquid; for viscosity: Concentric cylinders viscometry; for mass density: Vibrating tube method

CCCCOS(=O)(=O)[O-].CC[n+]1ccn(C)c1 [3-ethyl-1-methylimidazolium butyl sulfate]
Settings	mass density [kg/m3]	viscosity [mPa·s]
283.15 K	–	468.4
288.15 K	–	332.5
293.15 K	1179.68	242.3
294.15 K	1178.99	–
295.15 K	1178.3	–
296.15 K	1177.62	–
297.15 K	1176.93	–
298.15 K	1176.24	180.8
299.15 K	1175.55	–
300.15 K	1174.87	–
301.15 K	1174.19	–
302.15 K	1173.5	–
303.15 K	1172.82	137.9
304.15 K	1172.14	–
305.15 K	1171.46	–
306.15 K	1170.78	–
307.15 K	1170.11	–
308.15 K	1169.43	107.2
309.15 K	1168.75	–
310.15 K	1168.08	–
311.15 K	1167.41	–
312.15 K	1166.73	–
313.15 K	1166.06	84.8
314.15 K	1165.39	–
315.15 K	1164.73	–
316.15 K	1164.06	–
317.15 K	1163.39	–
318.15 K	1162.73	68.1
319.15 K	1162.06	–
320.15 K	1161.4	–
321.15 K	1160.74	–
322.15 K	1160.07	–
323.15 K	1159.41	55.6
324.15 K	1158.76	–
325.15 K	1158.1	–
326.15 K	1157.43	–
327.15 K	1156.78	–
328.15 K	1156.12	45.9
329.15 K	1155.47	–
330.15 K	1154.81	–
331.15 K	1154.16	–
332.15 K	1153.51	–
333.15 K	1152.85	38.4
334.15 K	1152.2	–
335.15 K	1151.55	–
336.15 K	1150.9	–
337.15 K	1150.25	–
338.15 K	1149.6	32.4
339.15 K	1148.95	–
340.15 K	1148.3	–
341.15 K	1147.65	–
342.15 K	1147.01	–
343.15 K	1146.37	27.7
344.15 K	1145.72	–
345.15 K	1145.07	–
346.15 K	1144.43	–
347.15 K	1143.78	–
348.15 K	1143.14	23.8
349.15 K	1142.5	–
350.15 K	1141.85	–
351.15 K	1141.21	–
352.15 K	1140.57	–
353.15 K	1139.93	20.7
354.15 K	1139.29	–
355.15 K	1138.65	–
356.15 K	1138.01	–
357.15 K	1137.37	–
358.15 K	1136.73	18.1
359.15 K	1136.09	–
360.15 K	1135.45	–
361.15 K	1134.82	–
362.15 K	1134.18	–
363.15 K	1133.54	16
368.15 K	–	14.2
373.15 K	–	12.6

CCCCCCCCOS(=O)(=O)[O-].CCn1cc[n+](C)c1 [1-ethyl-3-methylimidazolium octyl sulfate]
Settings	mass density [kg/m3]	viscosity [mPa·s]
283.15 K	–	1879
288.15 K	–	1252.1
293.15 K	1098.76	856
294.15 K	1098.1	–
295.15 K	1097.43	–
296.15 K	1096.77	–
297.15 K	1096.31	–
298.15 K	1095.65	601.6
299.15 K	1094.99	–
300.15 K	1094.32	–
301.15 K	1093.65	–
302.15 K	1092.99	–
303.15 K	1092.32	433.6
304.15 K	1091.66	–
305.15 K	1090.99	–
306.15 K	1090.33	–
307.15 K	1089.66	–
308.15 K	1089	319.6
309.15 K	1088.33	–
310.15 K	1087.67	–
311.15 K	1087	–
312.15 K	1086.34	–
313.15 K	1085.68	240.5
314.15 K	1085.02	–
315.15 K	1084.36	–
316.15 K	1083.7	–
317.15 K	1083.04	–
318.15 K	1082.38	184.4
319.15 K	1081.72	–
320.15 K	1081.06	–
321.15 K	1080.4	–
322.15 K	1079.75	–
323.15 K	1079.09	143.8
324.15 K	1078.44	–
325.15 K	1077.78	–
326.15 K	1077.13	–
327.15 K	1076.48	–
328.15 K	1075.83	113.9
329.15 K	1075.17	–
330.15 K	1074.52	–
331.15 K	1073.87	–
332.15 K	1073.23	–
333.15 K	1072.58	91.6
334.15 K	1071.93	–
335.15 K	1071.29	–
336.15 K	1070.64	–
337.15 K	1070	–
338.15 K	1069.35	74.5
339.15 K	1068.71	–
340.15 K	1068.07	–
341.15 K	1067.43	–
342.15 K	1066.79	–
343.15 K	1066.15	61.4
344.15 K	1065.51	–
345.15 K	1064.87	–
346.15 K	1064.23	–
347.15 K	1063.6	–
348.15 K	1062.96	51.1
349.15 K	1062.32	–
350.15 K	1061.69	–
351.15 K	1061.05	–
352.15 K	1060.42	–
353.15 K	1059.79	43
354.15 K	1059.16	–
355.15 K	1058.53	–
356.15 K	1057.89	–
357.15 K	1057.26	–
358.15 K	1056.63	36.5
359.15 K	1056	–
360.15 K	1055.37	–
361.15 K	1054.75	–
362.15 K	1054.12	–
363.15 K	1053.49	31.3
368.15 K	–	27
373.15 K	–	23.5

— the NIST ThermoML archive (doi:10.1021/je200434a)
